{"source": "patent US20240065983A1", "about": "“COMPOSITION AND METHOD FOR TREATING COVID-19” (University of South Florida, priority 2021, published 2024)", "key": {"[1]": {"test_system": "poly I:C stimulated Calu 3 cells", "test": "Gene expression (qPCR) in poly I:C stimulated Calu3 cells", "format": "cell-based", "details": "10 ug/ml poly IC 24 h, 20 uM LG 48 h", "method": "(§1) FIG. 2A-B are a series of graphs depicting broad spectrum anti-viral and anti-inflammatory activity of LG. Histograms showing mRNA expression assessed by qPCR. A) Effect of LG on poly I:C (P I:C) stimulated Calu 3 cells with or without LG treatment, B) Anti-inflammatory effect of LG treatment in NL63 infected Calu 3 cells. Cells were collected 48 hrs of post infection (PI) with NL63 virus (0.1 MOI) (C, Control) and treated with LG (20 uM) (T, Treatment), n=3, Data expressed as mean±SEM, * Compared to NL63, *p<0.05, **p<0.005, ***p<0.0005.\n(§2) To examine whether LG has broad spectrum antiviral activity, Calu3 cells are stimulated with 10 ug/ml poly IC for 24 h, treated with 20 uM LG for 48 h, and then RNA was isolated for gene expression analyses. […] Further the inventors examined the effect of LG on the Calu3 lung cells infected with human coronavirus NL63."}, "[2]": {"test_system": "icSARS-CoV-2nMG (CoV2-GFP)", "format": "cell-based, SARS-CoV-2"}, "Delta strain": {"test_system": "Delta strain", "test": "Plaque assay, Delta strain", "format": "cell-based, SARS-CoV-2"}, "human coronavirus NL63": {"test_system": "human coronavirus NL63", "test": "Gene expression (qPCR) in NL63 infected Calu3 cells", "format": "cell-based", "details": "NL63 0.1 MOI, LG 20 uM, 48 hrs PI", "method": "as §1, §2"}, "WA strain": {"test_system": "WA strain", "test": "Plaque assay, WA strain", "format": "cell-based, SARS-CoV-2"}, "[3]": {"test_system": "mouse coronavirus (MHV), K18 hACE2 transgenic mouse, and mouse adapted coronavirus (MA10) infection models"}, "RBD-ACE2 interaction": {"target": "T1, RBD-ACE2 interaction (Severe acute respiratory syndrome coronavirus 2, UniProt P0DTC2)", "T1 construct": "purchased Genscript", "format": "binding", "details": "compared to the negative control"}, "[4]": {"test_system": "mouse coronavirus MHV-A59-GFP", "test": "microbe, parasite or virus in culture", "details": "read-out: inhibition of infection"}, "[5]": {"test_system": "mouse coronavirus MHV-A59-GFP"}, "icSARS-CoV-2nMG": {"test_system": "icSARS-CoV-2nMG", "format": "cell-based, SARS-CoV-2"}}, "data": [{"compound": "CC(O)c1ccc(CCOc2ccc(CC3SC(=O)NC3=O)cc2)nc1", "note": "(stereo not drawn) [LG, leriglitazone]", "values": [{"measurement": "expression of IL-6, IL1β, IFNγ, TNFα, NFkB, NLRP3", "setting": "[1]", "result": "inhibits expression"}, {"measurement": "expression of IL-10 and PPARγ", "setting": "[1]", "result": "increases expression"}, {"measurement": "CoV2 infection", "setting": "[2]", "result": "dose-dependent decrease of CoV2 infection"}, {"measurement": "infected GFP-positive cells", "setting": "[2]; LG 20 uM, WA strain, Caco2", "result": "significant reduction in infected GFP-positive cells"}, {"measurement": "reduction in plaque titers", "setting": "Delta strain", "result": "> 2", "unit": "log"}, {"measurement": "expression of anti-inflammatory genes at transcript level", "setting": "human coronavirus NL63", "result": "altered expression of anti-inflammatory genes at the transcript level similar to that found in poly-IC experiment"}, {"measurement": "reduction in plaque titers", "setting": "WA strain", "result": "> 2", "unit": "log"}, {"measurement": "efficacy in in vivo studies", "setting": "[3]", "result": "> 70", "unit": "%"}, {"measurement": "interference of RBD-ACE2 interaction", "setting": "RBD-ACE2 interaction", "result": "significantly inhibited the RBD-ACE2 interaction in a dose-dependent manner"}, {"measurement": "inhibition at 20 µM", "setting": "[4]", "result": "> 70", "unit": "%"}, {"measurement": "cell killing (bright field images)", "setting": "[5]; 20 uM LG, DBT cells", "result": "without killing the cells"}, {"measurement": "inhibition of coronavirus infection (dose dependence)", "setting": "[5]; DBT cells, GFP", "result": "inhibited coronavirus infection in a dose-dependent fashion"}, {"measurement": "reduction in infection versus Remdesvir", "setting": "[5]; LG 20 uM vs Remdesvir 10 nM", "result": "significantly higher reduction in infection"}, {"measurement": "N transcript", "setting": "[5]; LG 20 uM, compared to vehicle control", "result": "significant reduction in N transcript"}]}, {"compound": "CCCCC/C=C\\C/C=C\\CCCCCCCC(=O)O", "note": "[LLA, linoleic acid]", "values": [{"measurement": "viral infection as seen by N gene expression", "setting": "icSARS-CoV-2nMG", "result": "significantly decreased viral infection"}]}]}
